Test results from patent publication US8476448B2, “Solid form of 4-[[(6-chloropyridin-3-yl)methyl](2,2-difluoroethyl)amino]furan-2(5H)-one” (Bayer Cropscience AG, priority 2009, dated 2013).

Experiment: Stability of the novel solid form on prolonged storage
Format: physicochemical

O=C1C=C(N(Cc2ccc(Cl)nc2)CC(F)F)CO1 [novel solid form, 4-[[(6-chloropyridin-3-yl)methyl](2,2-difluoroethyl)amino]furan-2(5H)-one]
thermodynamic stability / conversion into another form: not converted into another form
